Consider three compounds from patent publication US8575092B2, “Gelling hydrophobic injectable polymer compositions” (Efrat Biopolymers Ltd., priority 2005, dated 2013).

The nature of data set [1]: Solubility of bupivacaine free base in the polymer. Format: physicochemical. The method, then: Bupivacaine free base (5, 7, 10% w/w) was incorporated in the liquid polymers by mixing the drug powder in the polymer at 40° C. and filling 1 ml syringe with this formulation. This formulation is a semi-solid at room temperature and liquid at body temperature. […] The free base bupivacaine formed a clear solution in the polymer while the HCl salt was a fine dispersion.
Bupivacaine was incorporated in the polymer without affecting the polymer molecular weight, as confirmed by GPC. Bupivacaine free base (BFB) is easily soluble in P(SA-RA) up to 15% w/w BFB. The hydrochloride salt dispersed well in the polymer without affecting its viscosity at least up to 15% w/w loading. P(SA-RA) 2:8 and 3:7 formulations containing 5% and 7% of bupivacaine constantly released the drug at a first order profile with about 60% of the incorporated drug was released during 7 days in buffer, formulation containing 10% released approximately 70% of its content during this period. For all experiments, the higher MW polymers (Mw=18,000) release the drug at a slower rate, between 10 and 20% less the amount released at each time point, compared to the low MW polymers (Mw=5,000).

The conditions of data set [2]: mouse.
Protocol: Inbred 8-10 week old female C3H mice, weighing about 20 g (Harlan Laboratories, Israel) were kept under specific pathogen free (SPF) conditions and given free access to irradiated sterile food and acidified water throughout the experiment. Blank polymer and pasty formulations containing paclitaxel (5% and 10% w/w) were injected subcutaneously to the backspace via a 23G needle into 12 groups of four C3H mice in each group. […] After 1, 7, 21 and 70 days, mice were sacrificed by cervical dislocation. The polymer implant was taken out, weighed before and after lyophilization and examined for paclitaxel content in the remaining formulation.
Data set [3] concerns S. aureus. Nature of the data set: Minimum inhibitory concentration of gentamicin. Format: cell-based. Conditions: S. aureus used in this study. The method, then: The minimum inhibitory concentration of gentamicin for the S. aureus used in this study is 2-4 μg/ml. […] No effect was found in these wells: the O.D. was approximately 0.7. In the wells that contained S. aureus in TSB only, O.D. of approximately 0.6 was found. In view of the results of gentamicin release (FIG. 14) and the profound bacterial inhibition by the diluted solutions (FIG. 15), there is probably a significant antibacterial activity in the release medium at an earlier stage.

For the compound `CCCCN1CCCCC1C(=O)Nc1c(C)cccc1C` (stereo not drawn) [BFB, Bupivacaine], the “solubility in P(SA-RA)” value in data set [1] is reported as “up to 15 % w/w”. On to “Poly(sebacic acid-co-ricinoleic acid ester anhydride) 2:8 [P(SA:RA) (2:8)]”, for which the in vivo degradation result in data set [2] is reported as “completely degraded”. On to gentamicin, for which the minimum inhibitory concentration in data set [3] was 2 to 4 µg/mL.
